Tests used:
Assay type in all cases: in vivo
Veronica persica [1] = assay: Post-emergence herbicidal efficacy at 320 g/ha, VERPE; settings: rated visually after about 3 weeks vs untreated controls, 100% = plants have died
In short: (§1)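 Effects are visual ratings taken about three weeks after foliar application, scaled from 0% (as untreated control) to 100% (plants died). Application was at the one-leaf stage in greenhouse-grown pots.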

Alopecurus myosuroides [2] = assay: Pre-emergence herbicide efficacy at 320 g/ha, ALOMY; settings: scored visually after about 3 weeks vs untreated controls, 100% = plants have died
From the text: (§2) Unwanted plants/weeds: • ABUTH: Abutilon theophrasti • ALOMY: Alopecurus myosuroides • AMARE: Amaranthus retroflexus • DIGSA: Digitaria sanguinalis • ECHCG: Echinochloa crus-galli • KCHSC: Kochia scoparia • LOLRI: Lolium rigidum • MATIN: Matricaria inodora • POAAN: Poa annua • POLCO: Polygonum convolvulus • SETVI: Setaria viridis • STEME: Stellaria media • VERPE: Veronica persica • VIOTR: Viola tricolor A. Post-Emergence Herbicidal Efficacy at 320 g/ha
(§3) Seeds of mono- and dicotyledonous weed plants were placed in plastic pots in sandy loam soil (doubly sown with one species each of mono- or dicotyledonous weed plants per pot) and covered with soil. The compounds of the invention, formulated in the form of wettable powders (WP) or as emulsion concentrates (EC), were then applied to the surface of the covering soil as aqueous suspension or emulsion with addition of 0.5% additive at a water application rate of 600 litres per hectare (converted). After the treatment, the pots were placed in a greenhouse and kept under good growth conditions for the test plants. After about 3 weeks, the efficacy of the preparations was scored visually in comparison with untreated controls as percentages.
(§4) For example, 100% activity=the plants have died, 0% activity=like control plants.
(§5) Tables C1 to C12 below show the effects of selected compounds of the general formula (I) according to Table 1 on various harmful plants and at an application rate corresponding to 320 g/ha, which were obtained by the trial procedure specified above.

Echinochloa crus-galli [3] = assay: Pre-emergence herbicide efficacy at 320 g/ha, ECHCG; settings: scored visually after about 3 weeks vs untreated controls, 100% = plants have died
In short: (§6)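 Seeds were sown in sandy loam and covered with soil; WP or EC formulations were then sprayed onto the soil surface at 320 g/ha in 600 L/ha water with 0.5% additive. After about 3 weeks in the greenhouse, efficacy was scored visually as % versus untreated controls (100% = plants dead, 0% = like control).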

Amaranthus retroflexus [4] = assay: Post-emergence herbicidal efficacy at 320 g/ha, AMARE; settings: rated visually after about 3 weeks vs untreated controls, 100% = plants have died
In short: as §1

Abutilon theophrasti [5] = assay: Pre-emergence herbicide efficacy at 320 g/ha, ABUTH; settings: scored visually after about 3 weeks vs untreated controls, 100% = plants have died
From the text: as §2, §3, §4, §5

Viola tricolor [6] = assay: Pre-emergence herbicide efficacy at 80 g/ha, VIOTR
From the text: as §2
(§7) Seeds of monocotyledonous and dicotyledonous weed plants and crop plants were placed in plastic or organic planting pots and covered with soil. The compounds of the invention, formulated in the form of wettable powders (WP) or as emulsion concentrates (EC), were then applied to the surface of the covering soil as aqueous suspension or emulsion with addition of 0.5% additive at a water application rate equivalent to 600 l/ha. After the treatment, the pots were placed in a greenhouse and kept under good growth conditions for the test plants. After about 3 weeks, the efficacy of the preparations was scored visually in comparison with untreated controls as percentages. For example, 100% activity=the plants have died, 0% activity=like control plants.
(§8) Tables D1 to D12 below show the effects of selected compounds of the general formula (I) according to Table 1 on various harmful plants and an application rate corresponding to 80 g/ha, which were obtained by the experimental procedure mentioned above.

Viola tricolor [7] = assay: Post-emergence herbicidal efficacy at 80 g/ha, VIOTR; settings: rated visually after about 3 weeks vs untreated controls, 100% = plants have died
From the text: as §2
(§9) Seeds of monocotyledonous and dicotyledonous weeds and crop plants were placed in sandy loam in plastic or organic planting pots, covered with soil and cultivated in a greenhouse under controlled growth conditions. 2 to 3 weeks after sowing, the test plants were treated at the one-leaf stage. The compounds of the invention, formulated in the form of wettable powders (WP) or as emulsion concentrates (EC), were then sprayed onto the green parts of the plants as aqueous suspension or emulsion with addition of 0.5% additive at a water application rate of 600 l/ha (converted). After the test plants had been kept in the greenhouse under optimum growth conditions for about 3 weeks, the activity of the preparations was rated visually in comparison to untreated controls. For example, 100% activity=the plants have died, 0% activity=like control plants.
(§10) Tables B1 to B11 below show the effects of selected compounds of the general formula (I) according to Table 1 on various harmful plants and an application rate corresponding to 80 g/ha, which were obtained by the experimental procedure mentioned above.

Stellaria media [8] = assay: Post-emergence herbicidal efficacy at 320 g/ha, STEME; settings: rated visually after about 3 weeks vs untreated controls, 100% = plants have died
In short: as §1

Veronica persica [9] = assay: Post-emergence herbicidal efficacy at 80 g/ha, VERPE; settings: rated visually after about 3 weeks vs untreated controls, 100% = plants have died
In short: (§11)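 Weeds grown in sandy loam under greenhouse conditions and sprayed post-emergence at the one-leaf stage (2–3 weeks after sowing) with WP or EC formulations plus 0.5% additive, 600 l/ha water. Activity scored visually about 3 weeks later versus untreated controls (0% = like control, 100% = plants dead).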

Veronica persica [10] = assay: Pre-emergence herbicide efficacy at 320 g/ha, VERPE; settings: scored visually after about 3 weeks vs untreated controls, 100% = plants have died
In short: as §6

Alopecurus myosuroides [11] = assay: Post-emergence herbicidal efficacy at 320 g/ha, ALOMY; settings: rated visually after about 3 weeks vs untreated controls, 100% = plants have died
From the text: as §2
(§12) Seeds of mono- and dicotyledonous weed plants were placed in plastic pots in sandy loam soil (doubly sown with in each case one species of mono- or dicotyledonous weed plants per pot), covered with soil and cultivated in a greenhouse under controlled growth conditions. 2 to 3 weeks after sowing, the test plants were treated at the one-leaf stage. The compounds of the invention, formulated in the form of wettable powders (WP) or as emulsion concentrates (EC), were applied to the green parts of the plants as aqueous suspension or emulsion with addition of 0.5% additive at a water application rate equivalent to 600 litres per hectare. After the test plants had been kept in the greenhouse under optimum growth conditions for about 3 weeks, the activity of the preparations was rated visually in comparison to untreated controls.
as §4
(§13) Tables A1 to A10 below show the effects of selected compounds of the general formula (I) according to Table 1 on various harmful plants and at an application rate corresponding to 320 g/ha, which were obtained by the trial procedure specified above.

Amaranthus retroflexus [12] = assay: Post-emergence herbicidal efficacy at 80 g/ha, AMARE; settings: rated visually after about 3 weeks vs untreated controls, 100% = plants have died
In short: as §11

Digitaria sanguinalis [13] = assay: Pre-emergence herbicide efficacy at 80 g/ha, DIGSA; settings: scored visually after about 3 weeks vs untreated controls, 100% = plants have died
From the text: as §2, §7, §8

Poa annua [14] = assay: Post-emergence herbicidal efficacy at 320 g/ha, POAAN; settings: rated visually after about 3 weeks vs untreated controls, 100% = plants have died
From the text: as §2, §12, §4, §13

Kochia scoparia [15] = assay: Post-emergence herbicidal efficacy at 80 g/ha, KCHSC; settings: rated visually after about 3 weeks vs untreated controls, 100% = plants have died
In short: as §11

Kochia scoparia [16] = assay: Post-emergence herbicidal efficacy at 320 g/ha, KCHSC; settings: rated visually after about 3 weeks vs untreated controls, 100% = plants have died
In short: as §1

Echinochloa crus-galli [17] = assay: Post-emergence herbicidal efficacy at 320 g/ha, ECHCG; settings: rated visually after about 3 weeks vs untreated controls, 100% = plants have died
In short: as §1

Abutilon theophrasti [18] = assay: Post-emergence herbicidal efficacy at 320 g/ha, ABUTH; settings: rated visually after about 3 weeks vs untreated controls, 100% = plants have died
In short: as §1

Kochia scoparia [19] = assay: Pre-emergence herbicide efficacy at 320 g/ha, KCHSC; settings: scored visually after about 3 weeks vs untreated controls, 100% = plants have died
In short: as §6

Setaria viridis [20] = assay: Pre-emergence herbicide efficacy at 320 g/ha, SETVI; settings: scored visually after about 3 weeks vs untreated controls, 100% = plants have died
In short: as §6

Setaria viridis [21] = assay: Post-emergence herbicidal efficacy at 80 g/ha, SETVI; settings: rated visually after about 3 weeks vs untreated controls, 100% = plants have died
From the text: as §2, §9, §10

Veronica persica [22] = assay: Pre-emergence herbicide efficacy at 80 g/ha, VERPE
From the text: as §2, §7, §8

Abutilon theophrasti [23] = assay: Post-emergence herbicidal efficacy at 80 g/ha, ABUTH; settings: rated visually after about 3 weeks vs untreated controls, 100% = plants have died
From the text: as §2, §9, §10

Digitaria sanguinalis [24] = assay: Pre-emergence herbicide efficacy at 320 g/ha, DIGSA; settings: scored visually after about 3 weeks vs untreated controls, 100% = plants have died
In short: as §6

Digitaria sanguinalis [25] = assay: Post-emergence herbicidal efficacy at 320 g/ha, DIGSA; settings: rated visually after about 3 weeks vs untreated controls, 100% = plants have died
From the text: as §2, §12, §4, §13

Amaranthus retroflexus [26] = assay: Pre-emergence herbicide efficacy at 80 g/ha, AMARE; settings: scored visually after about 3 weeks vs untreated controls, 100% = plants have died
From the text: as §2, §7, §8

Amaranthus retroflexus [27] = assay: Pre-emergence herbicide efficacy at 320 g/ha, AMARE; settings: scored visually after about 3 weeks vs untreated controls, 100% = plants have died
In short: as §6

Setaria viridis [28] = assay: Pre-emergence herbicide efficacy at 80 g/ha, SETVI
From the text: as §2, §7, §8

Poa annua [29] = assay: Pre-emergence herbicide efficacy at 320 g/ha, POAAN; settings: scored visually after about 3 weeks vs untreated controls, 100% = plants have died
In short: as §6

Stellaria media [30] = assay: Pre-emergence herbicide efficacy at 320 g/ha, STEME; settings: scored visually after about 3 weeks vs untreated controls, 100% = plants have died
In short: as §6

Fc1cccc(Nc2ncc(Cl)cn2)c1-c1cc(C(F)F)no1 [Example 1-33]
100%: Post-emergence efficacy at 320 g/ha against VERPE in % (Veronica persica [1]) | Pre-emergence efficacy at 320 g/ha against ALOMY in % (Alopecurus myosuroides [2]) | Pre-emergence efficacy at 320 g/ha against ECHCG in % (Echinochloa crus-galli [3]) | Post-emergence efficacy at 320 g/ha against AMARE in % (Amaranthus retroflexus [4]) | Pre-emergence efficacy at 320 g/ha against ABUTH in % (Abutilon theophrasti [5]) | Post-emergence efficacy at 80 g/ha against VIOTR in % (Viola tricolor [7]) | Post-emergence efficacy at 320 g/ha against STEME in % (Stellaria media [8]) | Post-emergence efficacy at 80 g/ha against VERPE in % (Veronica persica [9]) | Pre-emergence efficacy at 320 g/ha against VERPE in % (Veronica persica [10]) | Post-emergence efficacy at 320 g/ha against ALOMY in % (Alopecurus myosuroides [11]) | Post-emergence efficacy at 80 g/ha against AMARE in % (Amaranthus retroflexus [12]) | Post-emergence efficacy at 320 g/ha against POAAN in % (Poa annua [14]) | Post-emergence efficacy at 80 g/ha against KCHSC in % (Kochia scoparia [15]) | Post-emergence efficacy at 320 g/ha against KCHSC in % (Kochia scoparia [16]) | Post-emergence efficacy at 320 g/ha against ECHCG in % (Echinochloa crus-galli [17]) | Post-emergence efficacy at 320 g/ha against ABUTH in % (Abutilon theophrasti [18]) | Pre-emergence efficacy at 320 g/ha against KCHSC in % (Kochia scoparia [19]) | Pre-emergence efficacy at 320 g/ha against SETVI in % (Setaria viridis [20]) | Post-emergence efficacy at 80 g/ha against SETVI in % (Setaria viridis [21]) | Pre-emergence efficacy at 320 g/ha against DIGSA in % (Digitaria sanguinalis [24]) | Post-emergence efficacy at 320 g/ha against DIGSA in % (Digitaria sanguinalis [25]) | Pre-emergence efficacy at 80 g/ha against AMARE in % (Amaranthus retroflexus [26]) | Pre-emergence efficacy at 320 g/ha against AMARE in % (Amaranthus retroflexus [27]) | Pre-emergence efficacy against SETVI (Setaria viridis [28]) | Pre-emergence efficacy at 320 g/ha against POAAN in % (Poa annua [29]) | Pre-emergence efficacy at 320 g/ha against STEME in % (Stellaria media [30])
80%: Post-emergence efficacy at 80 g/ha against ABUTH in % (Abutilon theophrasti [23])
90%: Pre-emergence efficacy against VIOTR (Viola tricolor [6]) | Pre-emergence efficacy at 80 g/ha against DIGSA in % (Digitaria sanguinalis [13]) | Pre-emergence efficacy against VERPE (Veronica persica [22])

From patent publication US20250311727A1, “SUBSTITUTED 2-AMINOAZINES AND SALTS THEREOF, AND USE THEREOF AS HERBICIDAL ACTIVE SUBSTANCES” (BAYER AKTIENGESELLSCHAFT, priority 2022, published 2025)
